Experimental data from US6344351B2, “(R)-transaminase from arthrobacter” (Kaneka Corporation, priority 1995, dated 2002).
Where two headings read alike, the source gives them in different places.

Columns and labels:
[1] = tested on: transaminase derived from Arthrobacter; experiment: Usability as amino group donor, transaminase of present invention; assay type: biochemical; settings: +/− without printed key, or words
Source text: Further, the transaminase derived from Arthrobacter which can be used in the present invention is different from the above-mentioned enzyme derived from Brevibacterium in many other aspects.

[2] = tested on: (R)-form-specific transaminase of Arthrobacter sp. KNK168; experiment: Reactivity of purified transaminase of present invention to amino compounds, pyruvic acid as amino acceptor; assay type: biochemical; parameters: Transaminase of Present Invention (Relative Activity: %), Substrate Specificity: concentration or dose not given beside the values; settings: for Transaminase of Present Invention (Relative Activity: %), Substrate Specificity: pyruvic acid as amino acceptor
Source text: (§1) The differences with the ω-amino acid transaminase derived from Pseudomonas sp. F-1 (Agric. Biol. Chem., 42, 2363-2367 (1978), Agric. Biol. Chem., 43, 1043-1048 (1979), J. Biol. Chem., 258, 2260-2265 (1983)) which have been well studied among the ω-amino acid transaminases, and with the benzylamine transaminase of Okada et al. (Japanese Patent Laid-Open No. Hei 6-178685) are summarized and shown in Table 2. In a case of the transaminase action in the present invention, the data of the purified enzyme are used, and in cases of those by other two enzymes, the data of the purified enzymes which are disclosed in each of the literature publication and patent publication are used. Pyruvic acid is used as an amino acceptor in all cases.
Using the purified enzyme obtained in Example 9, reactivities to various amino compounds when using pyruvic acid as an amino acceptor were evaluated. 150 μl of a solution of the purified enzyme diluted ten-folds was added to 150 μl of a substrate solution (0.1 M potassium phosphate buffer (pH 8.3), 40 mM pyruvic acid, 0.1 mM pyridoxal phosphate, and 40 mM various amino compounds). The components were reacted at 30° C. for 1 hour. The reaction tube was transferred into boiling water to stop the reaction, and, thereafter, a part of the reaction mixture was diluted five-folds. Ten μl of 0.1 M boric acid buffer (pH 8.0) and 20 μl of an ethanol solution of 80 mM of 4-fluoro-7-nitro-2,1,3-benzoxadiazole (NBD-F) were added to 10 μl of the above-mentioned diluted reaction mixture. The components were reacted at 60° C. for 1 minute, and, thereafter, the reaction mixture was ice-cooled, and 460 μl of 5 mM HCl was added thereto. This reaction mixture was analyzed by high-performance liquid chromatography using fine pack C18-5 column and using a 0.1 M potassium phosphate buffer (pH 6.5) and CH3CN (90:10) as an eluent solution to detect formation of alanine-NBD using excitation wavelength of 470 nm and using detection wave of […]. The results thereof are shown in Table 8 in terms of relative activity in the case of using […] as a substrate.

[3] = tested on: transaminase (intracellular enzyme) of Arthrobacter sp. KNK168; experiment: Activity of the transaminase (intracellular enzyme) against typical substrates of ω-aminotransferases; assay type: biochemical
[4] = tested on: benzylamine transaminase of Okada et al.; parameters: Transaminase of Okada et al. (Relative Activity: %), Substrate Specificity: concentration or dose not given beside the values; settings: cited from earlier work; for Transaminase of Okada et al. (Relative Activity: %), Substrate Specificity: purified enzyme, patent publication data, pyruvic acid as amino acceptor
[5] = molecular target: T1, ω-amino acid transaminase derived from Pseudomonas sp. F-1 (Pseudomonas putida, UniProt P28269); parameters: concentration or dose not given beside the values; settings: purified enzyme, literature data; pyruvic acid as amino acceptor; cited from earlier work
T1 sequence (P28269 1-449): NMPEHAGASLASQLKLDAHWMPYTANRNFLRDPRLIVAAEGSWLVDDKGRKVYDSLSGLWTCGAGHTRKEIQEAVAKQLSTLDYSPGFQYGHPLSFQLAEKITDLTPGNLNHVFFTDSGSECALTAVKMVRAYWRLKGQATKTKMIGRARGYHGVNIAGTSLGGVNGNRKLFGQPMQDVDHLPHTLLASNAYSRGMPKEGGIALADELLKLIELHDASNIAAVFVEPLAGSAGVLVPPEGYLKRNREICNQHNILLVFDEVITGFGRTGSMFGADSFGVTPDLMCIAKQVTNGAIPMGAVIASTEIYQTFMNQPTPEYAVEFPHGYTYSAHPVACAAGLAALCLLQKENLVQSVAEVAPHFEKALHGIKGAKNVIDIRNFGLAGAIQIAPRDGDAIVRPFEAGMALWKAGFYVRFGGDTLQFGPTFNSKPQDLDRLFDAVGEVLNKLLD

[6] = tested on: (R)-form-specific transaminase of Arthrobacter sp. KNK168; experiment: Influence of reaction inhibitors on purified transaminase of present invention; assay type: biochemical; settings: for Transaminase of Present Invention (Relative Activity: %) with inhibitor: inhibitor 1 mM, without addition = 100
Source text: as §1

[7] = molecular target: T1, ω-amino acid transaminase derived from Pseudomonas sp. F-1; settings: inhibitor 1 mM; without addition = 100; cited from earlier work
[8] = tested on: benzylamine transaminase of Okada et al.; settings: without addition = 100, cited from earlier work
[9] = tested on: Arthrobacter species KNK168 strain; experiment: Inducer added to culture medium; (R)-DMA formation by the separated cells; assay type: cell-based; settings: cells reacted 30° C., 20 hours, 1% 1-(3,4-dimethoxyphenyl)-2-propanone, 1% (RS)-1-methylpropylamine
Experimental: When culturing the Arthrobacter species KNK168 strain by the method described in Example 1, (RS)-1-methylpropylamine, (RS)-1-methylbutylamine, (RS)-3-amino-2,2-dimethylbutane, (RS)-2-amino-1-butanol, or (RS)-1-phenylethylamine was added to the medium in place of (R)-1-(3,4-dimethoxyphenyl)-2-aminopropane ((R)-DMA). The cells were separated from the medium, and the reaction was carried out at 30° C. for 20 hours using the above cells in a reaction mixture containing 1% of 1-(3,4-dimethoxyphenyl)-2-propanone and 1% of (RS)-1-methylpropylamine.

[10] = tested on: Arthrobacter species KNK168 strain; experiment: Amino donor test; (R)-DMA formation by cultured cells; assay type: cell-based
Experimental: The cultured cells were harvested by centrifugation, and the harvested cells were suspended in a reaction mixture (pH 8.5) containing 1% of 1-(3,4-dimethoxyphenyl)-2-propanone, […] of Triton X-100, and 1% of an amino donor shown in Table 2. The components were reacted at 35° C. for 20 hours.

[11] = tested on: Arthrobacter species KNK168 strain; experiment: Resolution of racemic 2-amino-1-methoxypropane by cells with aldehyde amino acceptors; assay type: cell-based; settings: 150 mM aldehyde as amino acceptor, 200 mM racemic 2-amino-1-methoxypropane, 30° C., 20 hours
Experimental: The Arthrobacter species KNK168 strain was cultured in the same manner as in Example 13, and the cells were separated from 1 ml of the culture. The cells were suspended in 1 ml of a reaction mixture containing a 0.1 M Tris-hydrochloric acid buffer (pH 8.5), 50 mg of racemic 2-amino-1-methoxypropane, 37.5 mg of pyruvic acid, and 0.1% of sodium dodecyl sulfate. The components were reacted at 30° C. for 24 hours with stirring. As a result of the analysis after the reaction, 23.4 mg of 2-amino-1-methoxypropane remained, and its optical purity was 95% ee ((S)-form).
By carrying out the same reaction as in Example 14 using 200 mM racemic 2-amino-1-methoxypropane, and 150 mM n-butylaldehyde or propionaldehyde, the components were reacted at 30° C. for 20 hours. As a result of the analysis thereof, the (S)-form of 2-amino-1-methoxypropane was concentrated, and the ratio of the (S)-form was 76% in a case of using n-butylaldehyde, and 58% in a case of using propionaldehyde.

For N[C@@H](CCC(=O)O)C(=O)O [glutamic acid], the “Amino Group Donor, Transaminase of Present Invention” value (shortened to “Amino Group Donor, Transaminase”) [1] was “cannot be used as an amino donor”.

In the case of NCCC(=O)O [β-Alanine], the “action of the transaminase derived from Arthrobacter on the substrate” value (shortened to “action of the transaminase derived”) [2] is reported as “does not act”, the “Transaminase of Present Invention (Relative Activity: %), Substrate Specificity” value ([2]; purified enzyme) is reported as 0% and the “activity of the transferase to amino donor” value [3] is reported as “does not act”. The “Relative Activity (%) as amino donor” value ([3]; amino acceptor pyruvic acid, (R)-1-phenylethylamine control = 100) was 0%, the “Transaminase of Okada et al. (Relative Activity: %), Substrate Specificity” value [4] was 0% and the “ω-Amino Acid Transaminase (Relative Activity: %), Substrate Specificity” value [5] was 100%.

In the case of NCc1ccccc1 [Benzylamine], the “Relative Activity (%) of amino compounds” value ([2]; purified enzyme, 40 mM amino compound in substrate solution, 40 mM pyruvic acid, pH 8.3, 30° C., 1 hour, (R)-1-phenylethylamine = 100) is given as 0.8%, the “Transaminase of Present Invention (Relative Activity: %), Substrate Specificity” value ([2]; purified enzyme) is given as 0.8% and the “action of benzylamine transaminase on substrate” value ([4]; in the presence of pyruvic acid) is given as “strongly acts”. The “Transaminase of Okada et al. (Relative Activity: %), Substrate Specificity” value [4] was 100% and the “ω-Amino Acid Transaminase (Relative Activity: %), Substrate Specificity” value [5] was 45%.

For NNc1ccccc1 [Phenylhydrazine], the “influence of reaction inhibitor on the transaminase derived from Arthrobacter” value [6] is listed as “affected only a little”, the “Transaminase of Present Invention (Relative Activity: %) with inhibitor” value [6] is listed as 82% and the “ω-Amino Acid Transaminase (Relative Activity: %) with inhibitor” value [7] is listed as 6%. The “Transaminase of Okada et al. (Relative Activity: %) with inhibitor” value ([8]; inhibitor 1 mM) was 27%.

With CC(N)c1ccccc1 (racemic) [(RS)-1-Phenylethylamine] the “(R)-DMA Formed (%), inducer in culture medium” value (from here on “(R)-DMA Formed (%), inducer”) [9] was 8.0% and the “function as amino donor” value [10] was “most highly preferable”.

For CCC=O [propionaldehyde], the “ratio of the (S)-form of 2-amino-1-methoxypropane” value [11] was 58%.

In the case of O=S(=O)([O-])[O-].[Cu+2] [CuSO4], the “Transaminase of Present Invention (Relative Activity: %) with inhibitor” value [6] is given as 44% and the “Transaminase of Okada et al. (Relative Activity: %) with inhibitor” value ([8]; inhibitor 0.5 mM) is given as 5%.

With COc1ccc(C[C@@H](C)N)cc1OC [(R)-DMA, (R)-1-(3,4-dimethoxyphenyl)-2-aminopropane] the “(R)-DMA Formed (%), inducer” value [9] was 0.9%.

In the case of NC1C=CC=C(C(=O)O)C1 (racemic) [Gabaculine], the “Transaminase of Present Invention (Relative Activity: %) with inhibitor” value [6] is listed as 24% and the “ω-Amino Acid Transaminase (Relative Activity: %) with inhibitor” value [7] is listed as 0%.

In the case of CCC(C)N (racemic) [(RS)-1-Methylpropylamine], the “(R)-DMA Formed (%), inducer” value [9] is reported as 22.3%, the “function as amino donor” value [10] is reported as “functioned as amino donors” and the “(R)-DMA Formed (%), amino group donor” value ([10]; 1% amino donor, 1% 1-(3,4-dimethoxyphenyl)-2-propanone, Triton X-100, pH 8.5, 35° C., 20 hours) is reported as 28.2%.

For NO [Hydroxylamine], the “influence of reaction inhibitor on the transaminase derived from Arthrobacter” value [6] is listed as “affected only a little”, the “Transaminase of Present Invention (Relative Activity: %) with inhibitor” value [6] is listed as 17% and the “ω-Amino Acid Transaminase (Relative Activity: %) with inhibitor” value [7] is listed as 0%. For the same compound, the “Transaminase of Okada et al. (Relative Activity: %) with inhibitor” value ([8]; inhibitor 0.1 mM) was 30%.

For CCCCN [n-Butylamine], the “action of the transaminase derived” value [2] is given as “does not act”, the “Transaminase of Present Invention (Relative Activity: %), Substrate Specificity” value ([2]; purified enzyme) is given as 0% and the “Transaminase of Okada et al. (Relative Activity: %), Substrate Specificity” value [4] is given as 0%. The “ω-Amino Acid Transaminase (Relative Activity: %), Substrate Specificity” value [5] was 60%.

In the case of CCCC=O [n-butylaldehyde], the “ratio of the (S)-form of 2-amino-1-methoxypropane” value [11] is reported as 76%.

In the case of NCCCCN [Putrescine], the “action of the transaminase derived” value [2] is reported as “does not act”, the “Transaminase of Present Invention (Relative Activity: %), Substrate Specificity” value ([2]; purified enzyme) is reported as 0% and the “Relative Activity (%) as amino donor” value ([3]; amino acceptor 2-ketoglutaric acid, (R)-1-phenylethylamine/pyruvic acid control = 100) is reported as 0%. The “Transaminase of Okada et al. (Relative Activity: %), Substrate Specificity” value [4] was 0% and the “ω-Amino Acid Transaminase (Relative Activity: %), Substrate Specificity” value [5] was 55%.

For CCCC(C)N (racemic) [(RS)-1-Methylbutylamine], the “(R)-DMA Formed (%), inducer” value [9] was 13.0% and the “function as amino donor” value [10] was “functioned as amino donors”.

For Cl.N [ammonium chloride], the “Amino Group Donor, Transaminase” value [1] was “cannot be used as an amino donor”.

For NCCc1ccccc1 [β-Phenethylamine], the “Transaminase of Present Invention (Relative Activity: %), Substrate Specificity” value ([2]; purified enzyme) is given as 0%, the “Transaminase of Okada et al. (Relative Activity: %), Substrate Specificity” value [4] is given as 9% and the “ω-Amino Acid Transaminase (Relative Activity: %), Substrate Specificity” value [5] is given as 54%.

In the case of CC(N)C(C)(C)C (racemic) [(RS)-3-Amino-2,2-dimethylbutane], the “(R)-DMA Formed (%), inducer” value [9] is reported as 18.6%.

With CCC(N)CO (racemic) [(RS)-2-Amino-1-butanol] the “(R)-DMA Formed (%), inducer” value [9] was 12.9%.

In the case of N[C@@H](CC(=O)O)C(=O)O [aspartic acid], the “Amino Group Donor, Transaminase” value [1] is reported as “cannot be used as an amino donor”.

In the case of O=C(O)c1cc[c]([Hg][Cl])cc1 [p-Chloromercuribenzoic acid], the “Transaminase of Present Invention (Relative Activity: %) with inhibitor” value [6] is given as 53%, the “ω-Amino Acid Transaminase (Relative Activity: %) with inhibitor” value [7] is given as 100% and the “Transaminase of Okada et al. (Relative Activity: %) with inhibitor” value ([8]; inhibitor 0.1 mM) is given as 9%.
